Measurements reported in article PMC4933878 (2016).

System: c-myc pu22 DNA (c-myc G-quadruplex DNA) (DNA, G4) TGGGGAGGGTGGGGAGGGTGGGGAAGG
Test: UV-vis absorption titration (hypochromism)
Conditions: 100 mM KCl; Tris-HCl, pH 7.2; 20 μM compound; hypochromism MLCT 14.6%, IL 38.9%; constant not given

binding: yes
SMILES: C(#Cc1ccc(-c2nc3c4cccnc4c4ncccc4c3[nH]2)cc1)c1ccccc1.[Ru+2].c1ccc(-c2ccccn2)nc1.c1ccc(-c2ccccn2)nc1
